Data as given in PMC11510191, “Exploring Benzo[h]chromene Derivatives as Agents against Protozoal and Mycobacterial Infections” (Pharmaceuticals, 2024).
Converted amounts (≈) assume the structure as drawn. Where two headings read alike, the source gives them in different places.

What was measured:
[1] = tested on: E. coli (G−); experiment: MIC broth microdilution; format: cell-based; settings: Escherichia coli, 24 h
[2] = tested on: P. aeruginosa (G−); experiment: MIC broth microdilution; format: cell-based; settings: Pseudomonas aeruginosa, 24 h
[3] = tested on: S. typhi (G−); experiment: MIC broth microdilution; format: cell-based; settings: Salmonella enterica, 24 h
[4] = tested on: S. aureus (G+); experiment: MIC broth microdilution; format: cell-based; settings: Staphylococcus aureus, 24 h
[5] = tested on: L. innocua (G+); experiment: MIC broth microdilution; format: cell-based; settings: Listeria innocua, 24 h
[6] = tested on: L. monocytogenes (G+); experiment: MIC broth microdilution; format: cell-based; settings: Listeria monocytogenes, 24 h
[7] = tested on: E. faecalis (G+); experiment: MIC broth microdilution; format: cell-based; settings: Enterococcus faecalis, 24 h
[8] = tested on: B. cereus (G+); experiment: MIC broth microdilution; format: cell-based; settings: Bacillus cereus, 24 h
[9] = tested on: M. luteus (G+); experiment: MIC broth microdilution; format: cell-based; settings: Micrococcus luteus, 24 h
[10] = tested on: T. cruzi epimastigotes; experiment: Trypanocidal activity on T. cruzi epimastigotes (CL-B5 lacZ, CPRG); format: cell-based, Trypanosoma cruzi clone CL-B5; settings: for Selectivity Index L929/ T. cruzi: SI = CC50 L929/IC50 parasites; for IC50: 72 h
Method: For in vitro studies of T. cruzi. the clone CL-B5 was used. Parasites were stably transfected with the Escherichia coli β-galactosidase gene (lacZ), provided by Facultad de Farmacia (Universidad Complutense de Madrid). Epimastigotes were grown at 28 °C in liver infusion tryptose broth (Difco, Detroit, MI, USA) with 10% fetal bovine serum (FBS) (Gibco, Carlsbad, CA, USA), penicillin (Ern S.A., Barcelona, Spain), and streptomycin (Reig Jofré S.A., Barcelona. Spain), as described previously, and harvested during the exponential growth phase. Briefly, the screening assay was performed in 96-well microplates (Sarstedt, Inc., Newton, NC, USA) with cultures that had not reached the stationary phase. Briefly, epimastigotes were seeded at 2 × 10^5 parasites/mL in 200 µL growth media. The plates were then incubated with the respective compounds at 28 °C for 72 h. Afterwards, 50 µL of CPRG solution was added, resulting in a final concentration of 200 µM. The plates were incubated at 37 °C for an additional 4 h and then read at 595 nm. Each concentration was tested in triplicate. […] These values were calculated from the sigmoidal dose–response curve adjustment using the statistical software program Graph-Pad Prims 3.0. Benznidazole was used as a reference drug.

[11] = tested on: M. tuberculosis CIPTIR -D152; experiment: MIC broth microdilution; format: cell-based; settings: Mycobacterium tuberculosis
[12] = tested on: M. tuberculosis CIPTIR-F296; experiment: MIC broth microdilution; format: cell-based; settings: Mycobacterium tuberculosis, CIPTIRF296
[13] = tested on: M. tuberculosis ATCC H37Rv; experiment: MIC broth microdilution; format: cell-based; settings: Mycobacterium tuberculosis, H37RV
[14] = tested on: M. abscessus LIID-01; experiment: MIC broth microdilution; format: cell-based; settings: Mycobacteroides abscessus, LIID01, 72 h
[15] = tested on: M. abscessus LIID-02; experiment: MIC broth microdilution; format: cell-based; settings: Mycobacteroides abscessus, LIID02, 72 h
[16] = tested on: M. abscessus LIID-03; experiment: MIC broth microdilution; format: cell-based; settings: Mycobacteroides abscessus, LIID03, 72 h
[17] = tested on: M. fortuitum LIID-01; experiment: MIC broth microdilution; format: cell-based; settings: Mycolicibacterium fortuitum, LIID01, 72 h
[18] = tested on: M. intracellulare LIID-01; experiment: MIC broth microdilution; format: cell-based; settings: Mycobacterium intracellulare, LIID01
[19] = tested on: M. intracellulare LIID-02; experiment: MIC broth microdilution; format: cell-based; settings: Mycobacterium intracellulare, LIID02
[20] = Cytotoxicity on L929 fibroblasts (resazurin); settings: mouse
[21] = tested on: NCTC929 fibroblast cells (L929); experiment: Cytotoxicity on L929 fibroblasts (resazurin); settings: L929 fibroblasts
[22] = tested on: Leishmania infantum (L. i) promastigotes; experiment: Leishmanicidal activity on L. infantum promastigotes (resazurin); settings: for IC50: Leishmania infantum, 48 h, read-out: Leishmanicidal Activity IC50—L. i; for Selectivity Index L929/ L. i: SI = CC50 L929/IC50 parasites
Method: (§1) The culture of L. braziliensis (MHOM/CO/88/UA301) and L. infantum (MCAN/ES/92/BCN83) was obtained from the Facultad de Farmacia, Universidad Complutense de Madrid, Spain.
(§2) The maintenance of the strains, the form of cultivation, and the isolation of shape promastigota followed the procedures described by Roldós et al. [8]. The promastigotes were grown at 22 °C in Schneider’s Drosophila medium supplemented with 20% FBS. The assay was performed using a modification of a previous method [47]. Promastigotes (2 × 10^6 parasites/well) were cultured in 96-well plastic plates. Compounds were dissolved in dimethylsulfoxide (DMSO). Different dilutions of the compounds up to a 200 µL final volume were added. After 48 h at 26 °C, 20 µL of 2 mM resazurin solution was added and the oxidation–reduction was quantified at 570 and 600 nm. The solution of resazurin was prepared at 2.5 mM in phosphate-buffered solution (PBS), pH 7.4, and filtered through 0.22 µM prior to use. All tests were carried out in triplicate. Resazurin sodium salt was obtained from Sigma–Aldrich (St. Louis, MO, USA) and stored at 4 °C protected from light. The efficacy of each compound was estimated by calculating the IC50 values.

[23] = tested on: Leishmania brazilensis (L. b) promastigotes; experiment: Leishmanicidal activity on L. braziliensis promastigotes (resazurin); settings: for IC50: Leishmania, 48 h, read-out: Leishmanicidal Activity IC50—L. b; for Selectivity Index L929/ L. b: SI = CC50 L929/IC50 parasites
Method: as §1, §2

[24] = in vitro; settings: mouse
[25] = Trypanosoma cruzi, epimastigotes, read-out: Trypanocidal Activity IC50 T. cruzi

## CNC(C)C1CCC(N)C(OC2C(N)CC(N)C(OC3OCC(C)(O)C(NC)C3O)C2O)O1 (stereo not shown) [Gentamicin, reference compound]
[1]
  MIC: 0.2 µg/mL (≈ 0.419 µM)
[2]
  MIC: 0.78 µg/mL (≈ 1.63 µM)
[3]
  MIC: 0.1 µg/mL (≈ 0.209 µM)
[4]
  MIC: 0.1 µg/mL (≈ 0.209 µM)
[5]
  MIC: 1.56 µg/mL (≈ 3.27 µM)
[6]
  MIC: 0.2 µg/mL (≈ 0.419 µM)
[7]
  MIC: 0.78 µg/mL (≈ 1.63 µM)
[8]
  MIC: 0.78 µg/mL (≈ 1.63 µM)
[9]
  MIC: 0.78 µg/mL (≈ 1.63 µM)

## Cc1ccc(S(=O)(=O)n2cc(CCCC(=O)Oc3c4c(c5ccccc5c3OC(=O)CCCc3cn(S(=O)(=O)c5ccc(C)cc5)nn3)OC(C)(C)C=C4)nn2)cc1 [Compound 3f]
[10]
  Selectivity Index L929/ T. cruzi: 13
[10]; [25]
  IC50: 24.7 µM
[11]
  MIC: > 200 µg/mL
[12]
  MIC: > 200 µg/mL
[13]
  MIC: > 200 µg/mL
[14]
  MIC: 100 µg/mL (≈ 121 µM)
[15]
  MIC: 100 µg/mL (≈ 121 µM)
[16]
  MIC: 100 µg/mL (≈ 121 µM)
[17]
  MIC: 100 µg/mL (≈ 121 µM)
[18]
  MIC: 100 µg/mL (≈ 121 µM)
[19]
  MIC: > 200 µg/mL
[1]
  MIC: 100 µg/mL (≈ 121 µM)
[2]
  MIC: 100 µg/mL (≈ 121 µM)
[3]
  MIC: > 200 µg/mL
[4]
  MIC: 100 µg/mL (≈ 121 µM)
[5]
  MIC: 100 µg/mL (≈ 121 µM)
[6]
  MIC: 100 µg/mL (≈ 121 µM)
[7]
  MIC: > 200 µg/mL
[8]
  MIC: 100 µg/mL (≈ 121 µM)
[9]
  MIC: 100 µg/mL (≈ 121 µM)
[20]
  CC50 at 24 h: 312 µM
[21]
  Cytotoxicity (in words): no cytotoxicity
[22]
  IC50: 46.6 µM
  Selectivity Index L929/ L. i: 7
[23]
  IC50: 17.6 µM
  Selectivity Index L929/ L. b: 18

## CCCCCCCCCCCCCCCCOP(=O)([O-])OCC[N+](C)(C)C [Miltefosine, reference compound]
[24]
  CC50 at 24 h: 2750 µM
[22]
  IC50: 25.1 µM
  Selectivity Index L929/ L. i: 109.7
[23]
  IC50: 64 µM
  Selectivity Index L929/ L. b: 43.0

## Cc1ccc(S(=O)(=O)n2cc(CCC(=O)Oc3c4c(c5ccccc5c3OC(=O)CCc3cn(S(=O)(=O)c5ccc(C)cc5)nn3)OC(C)(C)C=C4)nn2)cc1 [Compound 2f]
[10]
  Selectivity Index L929/ T. cruzi: 2
[10]; Trypanosoma cruzi, read-out: Trypanocidal Activity IC50 T. cruzi, epimastigotes, 72 h
  IC50: 21.4 µM
[10]; epimastigotes, read-out: Trypanocidal Activity IC50 T. cruzi
  IC50: 21.1 µM
[11]
  MIC: > 200 µg/mL
[12]
  MIC: > 200 µg/mL
[13]
  MIC: > 200 µg/mL
[14]
  MIC: > 200 µg/mL
[15]
  MIC: > 200 µg/mL
[16]
  MIC: > 200 µg/mL
[17]
  MIC: > 200 µg/mL
[18]
  MIC: 50 µg/mL (≈ 62.7 µM)
[19]
  MIC: > 200 µg/mL
[1]
  MIC: > 200 µg/mL
[2]
  MIC: > 200 µg/mL
[3]
  MIC: > 200 µg/mL
[4]
  MIC: > 200 µg/mL
[5]
  MIC: > 200 µg/mL
[6]
  MIC: > 200 µg/mL
[7]
  MIC: > 200 µg/mL
[8]
  MIC: > 200 µg/mL
[9]
  MIC: > 200 µg/mL
[20]
  CC50 at 24 h: 31.8 µM
[21]
  Cytotoxicity (in words): most cytotoxic
[22]
  IC50: 38.2 µM
  Selectivity Index L929/ L. i: 1
[23]
  IC50: 14.5 µM
  Selectivity Index L929/ L. b: 2

## CC(=O)O[C@@H]1[C@@H](OC(C)=O)[C@H](OC(C)=O)CO[C@H]1n1cc(CCCC(=O)Oc2c3c(c4ccccc4c2OC(=O)CCCc2cn([C@@H]4OC[C@@H](OC(C)=O)[C@H](OC(C)=O)[C@H]4OC(C)=O)nn2)OC(C)(C)C=C3)nn1 [Compound 3e]
[10]; [25]
  IC50: > 256 µM
[11]
  MIC: > 200 µg/mL
[12]
  MIC: > 200 µg/mL
[13]
  MIC: > 200 µg/mL
[14]
  MIC: > 200 µg/mL
[15]
  MIC: > 200 µg/mL
[16]
  MIC: > 200 µg/mL
[17]
  MIC: > 200 µg/mL
[18]
  MIC: 50 µg/mL (≈ 48.4 µM)
[19]
  MIC: > 200 µg/mL
[1]
  MIC: > 200 µg/mL
[2]
  MIC: > 200 µg/mL
[3]
  MIC: 100 µg/mL (≈ 96.8 µM)
[4]
  MIC: > 200 µg/mL
[5]
  MIC: > 200 µg/mL
[6]
  MIC: > 200 µg/mL
[7]
  MIC: > 200 µg/mL
[8]
  MIC: > 200 µg/mL
[9]
  MIC: > 200 µg/mL
[20]
  CC50 at 24 h: > 256 µM
[22]
  IC50: > 256 µM
[23]
  IC50: > 256 µM

## C#CCCC(=O)Oc1c2c(c3ccccc3c1OC(=O)CCC#C)OC(C)(C)C=C2 [Compound 1a]
[10]
  Selectivity Index L929/ T. cruzi: 6
[10]; [25]
  IC50: 19.2 µM
[11]
  MIC: > 200 µg/mL
[12]
  MIC: > 200 µg/mL
[13]
  MIC: > 200 µg/mL
[14]
  MIC: > 200 µg/mL
[15]
  MIC: > 200 µg/mL
[16]
  MIC: > 200 µg/mL
[17]
  MIC: > 200 µg/mL
[18]
  MIC: 50 µg/mL (≈ 124 µM)
[19]
  MIC: > 200 µg/mL
[1]
  MIC: > 200 µg/mL
[2]
  MIC: > 200 µg/mL
[3]
  MIC: > 200 µg/mL
[4]
  MIC: 100 µg/mL (≈ 248 µM)
[5]
  MIC: > 200 µg/mL
[6]
  MIC: > 200 µg/mL
[7]
  MIC: > 200 µg/mL
[8]
  MIC: > 200 µg/mL
[9]
  MIC: > 200 µg/mL
[20]
  CC50 at 24 h: 106 µM
[22]
  IC50: 24.9 µM
  Selectivity Index L929/ L. i: 4
[23]
  IC50: 10.7 µM
  Selectivity Index L929/ L. b: 10

## CC1(C)C=Cc2c(OC(=O)CCCc3cn(Cc4ccc([N+](=O)[O-])cc4)nn3)c(OC(=O)CCCc3cn(Cc4ccc([N+](=O)[O-])cc4)nn3)c3ccccc3c2O1 [Compound 3h]
[10]; [25]
  IC50: > 256 µM
[11]
  MIC: > 200 µg/mL
[12]
  MIC: > 200 µg/mL
[13]
  MIC: > 200 µg/mL
[14]
  MIC: 100 µg/mL (≈ 127 µM)
[15]
  MIC: 100 µg/mL (≈ 127 µM)
[16]
  MIC: 100 µg/mL (≈ 127 µM)
[17]
  MIC: > 200 µg/mL
[18]
  MIC: > 200 µg/mL
[19]
  MIC: > 200 µg/mL
[1]
  MIC: > 200 µg/mL
[2]
  MIC: > 200 µg/mL
[3]
  MIC: 100 µg/mL (≈ 127 µM)
[4]
  MIC: 100 µg/mL (≈ 127 µM)
[5]
  MIC: > 200 µg/mL
[6]
  MIC: > 200 µg/mL
[7]
  MIC: > 200 µg/mL
[8]
  MIC: > 200 µg/mL
[9]
  MIC: > 200 µg/mL
[20]
  CC50 at 24 h: > 256 µM
[22]
  IC50: > 256 µM
[23]
  IC50: > 256 µM
